This is an account of results in patent publication US7476672B2, “Acetylenic compounds useful in treating inflammatory disorders” (Janssen Pharmaceutica N.V., priority 2002, dated 2009).

As usually defined, the IC50 is the midpoint of a concentration-inhibition curve. One may read the melting point as the temperature of the solid-liquid transition.

Structures are written as SMILES. Counter-ions that a name gives are not always drawn.

The first series deals with T1, NADPH-oxidase (Homo sapiens, UniProt P04839).
T1 construct: endogenous in cells; host or cells: human neutrophils isolated from buffy coat
T1 sequence (P04839 1-570): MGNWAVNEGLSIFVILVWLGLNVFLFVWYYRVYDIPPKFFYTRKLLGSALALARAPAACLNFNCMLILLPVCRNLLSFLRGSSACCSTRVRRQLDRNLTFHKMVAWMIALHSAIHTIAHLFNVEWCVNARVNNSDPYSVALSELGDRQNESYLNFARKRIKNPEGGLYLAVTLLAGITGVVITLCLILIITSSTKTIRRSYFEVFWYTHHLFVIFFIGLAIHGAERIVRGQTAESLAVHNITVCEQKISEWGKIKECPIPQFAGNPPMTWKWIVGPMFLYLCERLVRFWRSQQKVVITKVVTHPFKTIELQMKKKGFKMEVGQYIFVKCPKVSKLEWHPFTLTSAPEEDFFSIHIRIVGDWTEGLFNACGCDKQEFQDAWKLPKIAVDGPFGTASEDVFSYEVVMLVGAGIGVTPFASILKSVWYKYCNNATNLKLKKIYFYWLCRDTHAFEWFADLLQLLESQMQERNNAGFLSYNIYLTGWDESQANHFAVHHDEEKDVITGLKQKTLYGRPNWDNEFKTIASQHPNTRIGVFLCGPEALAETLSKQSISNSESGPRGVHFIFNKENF
The experiment in a line: Oxidase Inhibition Assay (PMA-stimulated superoxide-mediated reduction of Cytochrome c, whole cells). The format is cell-based. Conditions: human neutrophils, PMA 0.5 μM, absorbance at 550 nm. The method, then: Whole cells (human neutrophils) are incubated with a pro-inflammatory agonist phorbol myristate acetate (PMA) in the presence or absence of test compound to measure the superoxide-mediated reduction of Cytochrome c at 550 nm. Inhibition of the oxidase is determined by a decreased absorbance at 550 nm, in response to test compound, relative to the absorbance seen with a vehicle control.
The buffy coat from one unit of blood is split evenly into four 50 mL tubes. To each tube 30 mL 3% Dextran (in 0.9% NaCl) is added and the tubes are inverted to mix. Tubes are allowed to sit undisturbed for 25 minutes. The resulting supernatant is recovered into four fresh tubes and centrifuged for 10 minutes at 600×g, 4° C. The supernatant is discarded and pellets are resuspended in 35 mL 0.9% saline. 10 mL Ficoll-Paque PLUS (Pharmacia Biotech AB) is layered beneath the cell suspension and centrifuged at 600×g for 40 minutes at room temperature. The supernatant is again discarded and tubes are tapped to loosen the resulting pellets. 20 mL 0.2% ice cold saline is added for 30 seconds followed by 20 mL 1.6% ice cold saline to lyse the remaining erythrocytes in the pellets. The pellets are centrifuged for 10 minutes at 600×g, 4° C., and the supernatant is discarded. The neutrophil pellets are resuspended in HBSS-glucose buffer (1 mg/mL), adding 2.5 mL to each tube for a total volume of 10 mL. The cell suspension is then counted on a hemocytometer.
The cell suspension is diluted to a concentration of 5×10^6/mL in HBSS-glucose and treated with 1 μg/mL Cytochalasin B (5 mg/mL DMSO) for 10 minutes at 37° C. in a shaking water bath. Cells are diluted to 6×10^5 cells/mL in 92 μM Cytochrome C for a final concentration of 5×10^4 cells/well.
The NADPH-oxidase assay is run on a Biomek 2000 workstation. The workstation adds 2.5 μL compound per well from source plates plus 12.5 μL per well 4 μM PMA (agonist). This volume is brought up to 100 μL total per well in the assay plates upon the addition of the prepared cells (85 μL). The final concentration of drug is 25 μM and PMA is 0.5 μM under these conditions.
The QC curve is a dose-response curve (from about 31.25 nM to about 4000 nM) for competitive binding against a known oxidase inhibitor such as DPI (diphenylene iodonium chloride). The format used for each compound tested is as follows:
The plates are incubated for 1 hour at 37° C. without CO2. The plates are then incubated at room temperature for 30 minutes and the absorbance is read at 550 nm.
For `Cc1cc(C#Cc2ccc(Cl)cc2)ccc1OCC(C)NCc1ccc(CN)cc1` (centres unmarked) [Compound 1, N-[2-[4-[(4-chlorophenyl)ethynyl]-2-methylphenoxy]-1-methylethyl]-1,4-benzenedimethanamine], inhibition was half-maximal at 700 nM (IC50).
`CCCNCc1ccc(CNCCOc2ccc(C#Cc3ccc(Cl)cc3)cc2)cc1` [Compound 2, N^1-[2-[4-[(4-chlorophenyl)ethynyl]phenoxy]ethyl]-N^4-propyl-1,4-benzenedimethanamine] yielded an IC50 of 2070 nM.
`CCCNCc1ccc(CNCCOc2ccc(C#Cc3ccc(Cl)cc3)cc2C)cc1` [Compound 3, N^1-[2-[4-[(4-chlorophenyl)ethynyl]-2-methylphenoxy]ethyl]-N^4-propyl-1,4-benzenedimethanamine]: the IC50 was 1380 nM.
On the same count and under the same terms, next, `CC(C)NCc1ccc(CNCCOc2ccc(C#Cc3ccc(Cl)cc3)cc2)cc1` [Compound 4, N^1-[2-[4-[(4-chlorophenyl)ethynyl]phenoxy]ethyl]-N^4-(1-methylethyl)-1,4-benzenedimethanamine]: 1200 nM; `CC(C)CCNCc1ccc(CNCCOc2ccc(C#Cc3ccc(Cl)cc3)cc2)cc1` [Compound 5, N^1-[2-[4-[(4-chlorophenyl)ethynyl]phenoxy]ethyl]-N^4-(3-methylbutyl)-1,4-benzenedimethanamine]: 2170 nM.
On the same count and under the same terms, to `Cc1cc(C#Cc2ccc(Cl)cc2)ccc1OCCNCc1ccc(CNCCC(C)C)cc1` [Compound 6, N^1-[2-[4-[(4-chlorophenyl)ethynyl]-2-methylphenoxy]ethyl]-N^4-(3-methylbutyl)-1,4-benzenedimethanamine] belongs 2280 nM; to `CN(C)CCCNCc1ccc(CNCCOc2ccc(C#Cc3ccc(Cl)cc3)cc2)cc1` [Compound 7, N^1-[2-[4-[(4-chlorophenyl)ethynyl]phenoxy]ethyl]-N^4-[3-(dimethylamino)propyl]-1,4-benzenedimethanamine], 770 nM.
In turn, `Cc1cc(C#Cc2ccc(Cl)cc2)ccc1OCCNCc1ccc(CNCc2ccccc2)cc1` [Compound 8, N^1-[2-[4-[(4-chlorophenyl)ethynyl]-2-methylphenoxy]ethyl]-N^4-(phenylmethyl)-1,4-benzenedimethanamine] returned a half-inhibitory concentration (IC50) of 3240 nM.
Compound `CCCCCCCNCc1ccc(CNCCOc2ccc(C#Cc3ccc(Cl)cc3)cc2C)cc1` [Compound 9, N^1-[2-[4-[(4-chlorophenyl)ethynyl]-2-methylphenoxy]ethyl]-N^4-heptyl-1,4-benzenedimethanamine] yielded an IC50 of 6660 nM.
Consider `Cc1cc(C#Cc2ccc(Cl)cc2)ccc1OCCNCc1ccc(CNCCCc2ccccc2)cc1` [Compound 10, N^1-[2-[4-[(4-chlorophenyl)ethynyl]-2-methylphenoxy]ethyl]-N^4-(3-phenylpropyl)-1,4-benzenedimethanamine], for which the midpoint of inhibition, the IC50, lay at 8340 nM.
For `CCCCCCNCc1ccc(CNCCOc2ccc(C#Cc3ccc(Cl)cc3)cc2C)cc1` [Compound 12, N^1-[2-[4-[(4-chlorophenyl)ethynyl]-2-methylphenoxy]ethyl]-N^4-hexyl-1,4-benzenedimethanamine], the midpoint of inhibition, the IC50, lay at 11100 nM.
`Cc1cc(C#Cc2ccc(Cl)cc2)ccc1OCCNCc1ccc(CNCCN2CCCC2)cc1` [Compound 14, N^1-[2-[4-[(4-chlorophenyl)ethynyl]-2-methylphenoxy]ethyl]-N^4-[2-(1-pyrrolidinyl)ethyl]-1,4-benzenedimethanamine] registered an IC50 of 2350 nM.
The compound `Cc1cc(C#Cc2ccc(Cl)cc2)ccc1OCCNCc1ccc(CNCCCN2CCOCC2)cc1` [Compound 15, N^1-[2-[4-[(4-chlorophenyl)ethynyl]-2-methylphenoxy]ethyl]-N^4-[3-(4-morpholinyl)propyl]-1,4-benzenedimethanamine] returned an IC50 of 1610 nM.
Still for that read-out and setting: next, `Cc1cc(C#Cc2ccc(Cl)cc2)ccc1OCCNCc1ccc(CNCCN2CCOCC2)cc1` [Compound 16, N^1-[2-[4-[(4-chlorophenyl)ethynyl]-2-methylphenoxy]ethyl]-N^4-[2-(4-morpholinyl)ethyl]-1,4-benzenedimethanamine]: 2660 nM.
The compound `Cc1cc(C#Cc2ccc(Cl)cc2)ccc1OCCNCc1ccc(CNCCCOC(=O)C2CCCCN2)cc1` (centres unmarked) [Compound 18, 3-[[[4-[[[2-[4-[(4-chlorophenyl)ethynyl]-2-methylphenoxy]ethyl]amino]methyl]phenyl]methyl]amino]propyl ester 2-piperidinecarboxylic acid] came in with an IC50 of 3010 nM.
The same measure, in the same setting: next, `Cc1cc(C#Cc2ccc(Cl)cc2)ccc1OCCNCc1ccc(CNC(C)(C)C)cc1` [Compound 19, N^1-[2-[4-[(4-chlorophenyl)ethynyl]-2-methylphenoxy]ethyl]-N^4-(1,1-dimethylethyl)-1,4-benzenedimethanamine]: 3330 nM.
For `Cc1cc(C#Cc2ccc(Cl)cc2)ccc1OCCNCc1ccc(CN)cc1` [Compound 21, N-[2-[4-[(4-chlorophenyl)ethynyl]-2-methylphenoxy]ethyl]-1,4-benzenedimethanamine], the IC50 is 1770 nM.
On to `CC(COc1ccc(C#Cc2ccccc2)cc1Cl)NCc1ccc(CN)cc1` (centres unmarked) [Compound 22, N-[2-[2-chloro-4-(phenylethynyl)phenoxy]-1-methylethyl]-1,4-benzenedimethanamine], for which half-maximal inhibition (IC50) required 850 nM.
In turn, `CCC(COc1ccc(C#Cc2ccc(Cl)cc2)cc1C)NCc1ccc(CN)cc1` (centres unmarked) [Compound 23, N-[1-[[4-[(4-chlorophenyl)ethynyl]-2-methylphenoxy]methyl]propyl]-1,4-benzenedimethanamine] showed an IC50 of 800 nM.
As for `Cc1ccc(C#Cc2ccc(OCC(C)NCc3ccc(CN)cc3)c(Cl)c2)cc1` (centres unmarked) [Compound 24, N-[2-[2-chloro-4-[(4-methylphenyl)ethynyl]phenoxy]-1-methylethyl]-1,4-benzenedimethanamine], inhibition was half-maximal at 700 nM (IC50).
Take `CC(COc1ccc(C#Cc2ccc(Cl)cc2)cc1Cl)NCc1ccc(CN)cc1` (centres unmarked) [Compound 25, N-[2-[2-chloro-4-[(4-chlorophenyl)ethynyl]phenoxy]-1-methylethyl]-1,4-benzenedimethanamine]: the IC50 is 700 nM.
As for `CC(COc1ccc(C#Cc2ccc(F)cc2)cc1Cl)NCc1ccc(CN)cc1` (centres unmarked) [Compound 26, N-[2-[2-chloro-4-[(4-fluorophenyl)ethynyl]phenoxy]-1-methylethyl]-1,4-benzenedimethanamine], inhibition was half-maximal at 1050 nM (IC50).

Test system in the next series: not given
Assay: not given
Details: not given
As to `Cc1cc(C#Cc2ccc(Cl)cc2)ccc1OCC(C)NCc1ccc(CN)cc1` (centres unmarked) (as salt: HCl) [Compound 1, N-[2-[4-[(4-chlorophenyl)ethynyl]-2-methylphenoxy]-1-methylethyl]-1,4-benzenedimethanamine], the melting point was more than 300 °C.
For the compound `CCC(COc1ccc(C#Cc2ccc(Cl)cc2)cc1C)NCc1ccc(CN)cc1` (centres unmarked) (as salt: HCl) [Compound 23, N-[1-[[4-[(4-chlorophenyl)ethynyl]-2-methylphenoxy]methyl]propyl]-1,4-benzenedimethanamine], the melting point lay in the range of 261.5 to 264 °C.
Compound `Cc1ccc(C#Cc2ccc(OCC(C)NCc3ccc(CN)cc3)c(Cl)c2)cc1` (centres unmarked) (as salt: HCl) [Compound 24, N-[2-[2-chloro-4-[(4-methylphenyl)ethynyl]phenoxy]-1-methylethyl]-1,4-benzenedimethanamine] yielded a melting point of more than 300 °C.
`CC(COc1ccc(C#Cc2ccc(Cl)cc2)cc1Cl)NCc1ccc(CN)cc1` (centres unmarked) (as salt: HCl) [Compound 25, N-[2-[2-chloro-4-[(4-chlorophenyl)ethynyl]phenoxy]-1-methylethyl]-1,4-benzenedimethanamine] gave a melting point of more than 300 °C.
